Assay results reported in patent US10131702B2, “Glucagon-GLP-1-GIP triple agonist compounds” (priority 2013, dated 2018).
Like-named read-outs stand apart in the source and are kept apart here. Numbered stars: 1 amine (or outer) side, 2 acyl side, 3 side chain; on linkers, the order of the positions; unused ones are H or OH. Square brackets hold non-standard residues; d marks the D form. Side chains are listed from the residue outwards. Peptide text beside a SMILES is read from it. * marks the point of attachment. C18 diacid = O=C(O)CCCCCCCCCCCCCCCCC(=O)*; γGlu = O=C(O)[C@H](CCC(=O)[*:2])N[*:1]; Stearoyl = CCCCCCCCCCCCCCCCCC(=O)*; AEEA = NCCOCCOCC(=O)O; Aib = CC(C)(N)C(=O)O

Assays:
Type in all cases: cell-based
human GIP R = target: T1, human GIP R (Homo sapiens, UniProt P48546); assay: cAMP induction in HEK293 cells expressing human GIP R (AlphaScreen cAMP kit)
T1 construct: expressed in transfected cells
T1 sequence (P48546 22-466): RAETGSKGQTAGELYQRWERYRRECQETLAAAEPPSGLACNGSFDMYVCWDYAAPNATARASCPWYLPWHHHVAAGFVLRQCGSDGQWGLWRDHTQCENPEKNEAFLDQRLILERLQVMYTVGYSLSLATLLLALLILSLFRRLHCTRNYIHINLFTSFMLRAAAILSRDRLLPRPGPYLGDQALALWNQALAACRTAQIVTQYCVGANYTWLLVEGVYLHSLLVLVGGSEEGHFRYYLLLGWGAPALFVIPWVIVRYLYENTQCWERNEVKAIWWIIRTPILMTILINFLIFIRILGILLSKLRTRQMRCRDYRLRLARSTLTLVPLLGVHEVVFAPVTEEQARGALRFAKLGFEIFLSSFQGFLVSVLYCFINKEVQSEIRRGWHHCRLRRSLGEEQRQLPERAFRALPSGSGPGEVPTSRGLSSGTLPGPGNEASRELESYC

human GLP-1 R = target: T2, human GLP-1 R (Homo sapiens, UniProt P43220); assay: cAMP induction in HEK293 cells expressing human GLP-1 R (AlphaScreen cAMP kit); details: average EC50, cAMP, HEK293 cells expressing human GLP-1 R, read-out: GLP1 R (EC50 in nM)
T2 construct: expressed in transfected cells
T2 sequence (P43220 24-463): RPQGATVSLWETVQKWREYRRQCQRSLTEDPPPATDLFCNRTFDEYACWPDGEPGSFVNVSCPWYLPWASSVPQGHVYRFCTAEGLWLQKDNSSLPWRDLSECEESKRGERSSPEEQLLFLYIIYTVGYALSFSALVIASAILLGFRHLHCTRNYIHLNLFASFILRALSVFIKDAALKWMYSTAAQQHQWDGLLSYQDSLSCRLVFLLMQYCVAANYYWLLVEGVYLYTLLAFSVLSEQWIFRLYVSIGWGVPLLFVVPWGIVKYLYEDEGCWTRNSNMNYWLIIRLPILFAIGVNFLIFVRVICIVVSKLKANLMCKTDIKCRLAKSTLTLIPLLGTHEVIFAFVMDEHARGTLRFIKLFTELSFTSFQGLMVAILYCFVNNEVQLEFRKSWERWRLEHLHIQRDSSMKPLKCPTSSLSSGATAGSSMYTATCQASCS

human GCG R = target: T3, human GCG R (Homo sapiens, UniProt P47871); assay: cAMP induction in HEK293 cells expressing human GCG R (AlphaScreen cAMP kit)
T3 construct: expressed in transfected cells
T3 sequence (P47871 26-477): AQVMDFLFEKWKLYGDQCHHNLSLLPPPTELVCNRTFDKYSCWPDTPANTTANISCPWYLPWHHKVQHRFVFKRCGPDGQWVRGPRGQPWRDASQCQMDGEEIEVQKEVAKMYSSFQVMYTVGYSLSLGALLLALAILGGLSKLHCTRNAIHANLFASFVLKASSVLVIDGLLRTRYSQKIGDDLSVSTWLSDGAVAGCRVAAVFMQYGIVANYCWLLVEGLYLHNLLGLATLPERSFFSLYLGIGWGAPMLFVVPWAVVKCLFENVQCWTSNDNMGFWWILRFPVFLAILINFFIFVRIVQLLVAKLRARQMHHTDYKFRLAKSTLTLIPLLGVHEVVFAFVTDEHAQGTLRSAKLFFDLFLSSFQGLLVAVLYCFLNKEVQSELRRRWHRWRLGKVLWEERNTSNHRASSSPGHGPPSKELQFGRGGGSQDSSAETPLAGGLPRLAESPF

[1] = GIP R (EC50 in nM), Table 2b (most comprehensive data), average EC50, cAMP
[2] = Table 2b (most comprehensive data)

Row | Structure (SMILES) | EC50 (human GIP R; [1]) | EC50 (human GLP-1 R; [2]) | EC50 (human GCG R) | EC50 (human GIP R; GIP R (EC50 in nM), Table 2, average EC50, cAMP) | EC50 (human GLP-1 R; Table 2) | EC50 (human GIP R; Table 2b (most comprehensive data), average EC50, cAMP, read-out: GIP R (EC50 in nM)) | EC50 (human GCG R; Table 2b (most comprehensive data), average EC50, cAMP, HEK293 cells expressing human GCG R, read-out: GCG R (EC50 in nM))
1 | CCCCCCCCCCCCCCCCCC(=O)N[C@@H](CCC(=O)NCCOCCOCC(=O)NCCOCCOCC(=O)NCCCC[C@H](NC(=O)[C@H](CCCCN)NC(=O)[C@H](CCC(=O)O)NC(=O)[C@H](CC(C)C)NC(=O)[C@H](C)NC(=O)[C@@H](NC(=O)[C@H](CO)NC(=O)[C@H](Cc1ccc(O)cc1)NC(=O)[C@H](CC(=O)O)NC(=O)[C@H](CO)NC(=O)[C@@H](NC(=O)[C@H](Cc1ccccc1)NC(=O)[C@@H](NC(=O)CNC(=O)[C@H](CCC(N)=O)NC(=O)C(C)(C)NC(=O)[C@@H](N)Cc1ccc(O)cc1)[C@@H](C)O)[C@@H](C)O)[C@@H](C)CC)C(=O)N[C@@H](C)C(=O)N[C@@H](CCC(N)=O)C(=O)N[C@@H](CCCNC(=N)N)C(=O)N[C@@H](C)C(=O)N[C@@H](Cc1ccccc1)C(=O)N[C@H](C(=O)N[C@@H](CCC(=O)O)C(=O)N[C@@H](Cc1c[nH]c2ccccc12)C(=O)N[C@@H](CC(C)C)C(=O)N[C@@H](CC(C)C)C(=O)N[C@@H](C)C(=O)N[C@@H](CCC(N)=O)C(=O)N[C@@H](CCCCN)C(N)=O)C(C)C)C(=O)O [Compound 46] (H-Y[Aib]QGTFTSDYSIALEKK([AEEA-AEEA-γGlu-Stearoyl])AQRAFVEWLLAQK-NH2) | 0.011 nM | 0.16 nM | 0.13 nM |  |  |  | 
2 | CC(C)C[C@H](NC(=O)[C@H](CC(C)C)NC(=O)[C@H](Cc1c[nH]c2ccccc12)NC(=O)[C@H](CCC(=O)O)NC(=O)[C@@H](NC(=O)[C@H](Cc1ccccc1)NC(=O)[C@H](CC(=O)O)NC(=O)[C@H](Cc1c[nH]cn1)NC(=O)[C@H](C)NC(=O)[C@H](C)NC(=O)[C@H](CCCCN)NC(=O)[C@H](CO)NC(=O)[C@H](CCC(=O)O)NC(=O)[C@H](CC(C)C)NC(=O)[C@H](Cc1ccc(O)cc1)NC(=O)[C@H](CCCCN)NC(=O)[C@H](CO)NC(=O)[C@H](Cc1ccc(O)cc1)NC(=O)[C@H](CC(=O)O)NC(=O)[C@H](CO)NC(=O)[C@@H](NC(=O)[C@H](Cc1ccccc1)NC(=O)[C@@H](NC(=O)CNC(=O)[C@H](CCC(N)=O)NC(=O)C(C)(C)NC(=O)[C@@H](N)Cc1ccc(O)cc1)[C@@H](C)O)[C@@H](C)O)C(C)C)C(=O)N[C@@H](CO)C(=O)N[C@@H](C)C(N)=O [Compound 8] (HELM PEPTIDE1{Y.[Aib].Q.G.T.F.T.S.D.Y.S.K.Y.L.E.S.K.A.A.H.D.F.V.E.W.L.L.S.A.[am]}$$$$V2.0) | 0.015 nM |  | 0.042 nM | 0.2 nM | 0.015 nM |  | 
3 | CC[C@H](C)[C@H](NC(=O)[C@H](CO)NC(=O)[C@H](Cc1ccc(O)cc1)NC(=O)[C@H](CC(=O)O)NC(=O)[C@H](CO)NC(=O)[C@@H](NC(=O)[C@H](Cc1ccccc1)NC(=O)[C@@H](NC(=O)CNC(=O)[C@H](CCC(N)=O)NC(=O)C(C)(C)NC(=O)[C@@H](N)Cc1ccc(O)cc1)[C@@H](C)O)[C@@H](C)O)C(=O)N[C@@H](Cc1ccc(O)cc1)C(=O)N[C@@H](CC(C)C)C(=O)N[C@@H](CC(=O)O)C(=O)N[C@@H](CCCCN)C(=O)N[C@@H](CCCCNC(=O)COCCOCCNC(=O)COCCOCCNC(=O)CC[C@H](NC(=O)CCCCCCCCCCCCCCCCC(=O)O)C(=O)O)C(=O)N[C@@H](C)C(=O)N[C@@H](CCC(N)=O)C(=O)N[C@@H](CCCNC(=N)N)C(=O)N[C@@H](C)C(=O)N[C@@H](Cc1ccccc1)C(=O)N[C@H](C(=O)N[C@@H](CCC(=O)O)C(=O)N[C@@H](Cc1c[nH]c2ccccc12)C(=O)N[C@@H](CC(C)C)C(=O)N[C@@H](CC(C)C)C(=O)N[C@@H](C)C(=O)N[C@@H](CCC(N)=O)C(=O)NCC(=O)N1CCC[C@H]1C(=O)N[C@@H](CO)C(=O)N[C@@H](CO)C(=O)NCC(=O)N[C@@H](C)C(=O)N1CCC[C@H]1C(=O)N1CCC[C@H]1C(=O)N1CCC[C@H]1C(=O)N[C@@H](CO)C(N)=O)C(C)C [Compound 33] (H-Y[Aib]QGTFTSDYSIYLDKK([AEEA-AEEA-γGlu-C18 diacid])AQRAFVEWLLAQGPSSGAPPPS-NH2) |  | 0.114 nM |  |  |  | 0.009 nM | 0.58 nM
